Measurements from patent publication US10934283B2, “COMT inhibiting methods and compositions” (LIEBER INSTITUTE FOR BRAIN DEVELOPMENT, priority 2015, dated 2021).

Molecular target: T1, catechol-O-methyltransferase (COMT) (Homo sapiens, UniProt P21964)
T1 construct: M51A variant) was expressed in HEK 293F cells
T1 sequence (P21964 52-271 limits assumed): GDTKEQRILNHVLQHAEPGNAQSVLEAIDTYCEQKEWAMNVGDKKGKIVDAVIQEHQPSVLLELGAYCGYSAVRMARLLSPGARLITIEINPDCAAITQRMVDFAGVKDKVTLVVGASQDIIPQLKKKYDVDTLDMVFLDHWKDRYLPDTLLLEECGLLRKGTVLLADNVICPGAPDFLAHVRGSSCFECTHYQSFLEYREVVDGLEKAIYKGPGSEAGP
Assay: COMT inhibition assay (HTRF, production of SAH from SAM)
Type: biochemical
Details: table does not say MB-COMT or S-COMT
Procedure: The ability of compounds to inhibit the activity of catechol-O-methyltransferase (COMT) was determined by a homogenous time-resolved fluorescent (HTRF) assay (Lina et al, 2012; kit from CisBio, Codolet, France). This assay measures the production of S-adenosyl homocysteine (SAH) from the methyl donor S-adenosyl methionine. Recombinant human membrane bound COMT (MB-COMT; M51A variant) was expressed in HEK 293F cells using 293Fectin (Life Technologies, Gent, Belgium) and membranes prepared. The membranes were re-suspended in buffer (20 mM Tris/HCl pH 7; 10 mM glycerol; 2 mM MgCl2; 10 mM NaCl), aliquoted and stored at −80° C. Recombinant human soluble COMT(S-COMT), Val158 variant and a hexa-His tag on the N-terminus, was purified using Ni-NTA chromatography, the His tag removed and stored in buffer as above.
For the human MB-COMT assay, membranes (62 ng/well) were incubated with SAM (20 μM final, CisBio) and dopamine (1.5 μM final; Sigma H8502, Diegem, Belgium) in the presence or absence of varying concentrations (typically 10 concentrations ranging from 10 ? M to 0.1 nM) of compound for 40 min at 37° C. in 384-well microtiter plates (10 ? l per well final volume). The reaction was terminated by the addition of acylation buffer and the amount of SAH produced determined according to manufacturer's instructions. Specific inhibition as that inhibited by a high concentration of tolcapone and all experiments were validated using a control curve to tolcapone.
The human S-COMT assay was performed as above except that 0.15 ng enzyme/well was incubated with SAM ([…]) and dopamine (100 μM final) for 15 min at 37° C. and SAH production determined.
HTRF readings were performed using a Perkin Elmer Envision and results expressed as concentration of SAH produced using a standard curve. Results were analyzed using non-linear regression to the 4-parameter logistic equation and pIC50 (−log 10 concentration of drug which inhibits enzyme activity/SAH production by 50%) determined.

Row | Compound | Activity range (pIC50)
1 | CCc1ccc(CN2CCn3cc(O)c(=O)cc3C2)cc1 [Example 13, 2-(4-ethylbenzyl)-7-hydroxy-1,2,3,4-tetrahydro-8H-pyrido[1,2-a]pyrazin-8-one] | +++ (three plus signs (+++) is associated with a pIC50 of above about 7)
2 | O=c1cc2n(cc1O)CCN(Cc1cccc3cccnc13)C2 [Example 14, 7-hydroxy-2-(quinolin-8-ylmethyl)-1,2,3,4-tetrahydro-8H-pyrido[1,2-a]pyrazin-8-one] | +++ (three plus signs (+++) is associated with a pIC50 of above about 7)
3 | CC(c1ccccc1)N1CCn2cc(O)c(=O)cc2C1 (stereo not shown) [Example 15, 7-hydroxy-2-(1-phenylethyl)-1,2,3,4-tetrahydro-8H-pyrido[1,2-a]pyrazin-8-one] | ++ (two plus signs (++) is associated with a pIC50 of from about 6 to 7)
4 | CCc1ccc(C(C)N2CCn3cc(O)c(=O)cc3C2)cc1 (stereo not shown) [Example 16, 2-[1-(4-ethylphenyl)ethyl]-7-hydroxy-1,2,3,4-tetrahydro-8H-pyrido[1,2-a]pyrazin-8-one] | +++ (three plus signs (+++) is associated with a pIC50 of above about 7)
5 | N#Cc1ccccc1CN1CCn2cc(O)c(=O)cc2C1 [Example 17, 2-[(7-hydroxy-8-oxo-1,3,4,8-tetrahydro-2H-pyrido[1,2-a]pyrazin-2-yl)methyl]benzonitrile] | ++ (two plus signs (++) is associated with a pIC50 of from about 6 to 7)
6 | CCc1ccc(CN2CCn3cc(O)c(=O)cc3C2)cc1[N+](=O)[O-] [Example 18, 2-(4-ethyl-3-nitrobenzyl)-7-hydroxy-1,2,3,4-tetrahydro-8H-pyrido[1,2-a]pyrazin-8-one] | +++ (three plus signs (+++) is associated with a pIC50 of above about 7)
7 | O=c1cc2n(cc1O)CCN(CC(c1ccccc1)c1ccccc1)C2 [Example 19, 2-(2,2-diphenylethyl)-7-hydroxy-1,2,3,4-tetrahydro-8H-pyrido[1,2-a]pyrazin-8-one] | ++ (two plus signs (++) is associated with a pIC50 of from about 6 to 7)
8 | CCC(CC)CN1CCn2cc(O)c(=O)cc2C1 [Example 20, 2-(2-ethylbutyl)-7-hydroxy-1,2,3,4-tetrahydro-8H-pyrido[1,2-a]pyrazin-8-one] | ++ (two plus signs (++) is associated with a pIC50 of from about 6 to 7)
9 | O=c1cc2n(cc1O)CCN(Cc1cc(Cl)cc(Cl)c1)C2 [Example 21, 2-(3,5-dichlorobenzyl)-7-hydroxy-1,2,3,4-tetrahydro-8H-pyrido[1,2-a]pyrazin-8-one] | +++ (three plus signs (+++) is associated with a pIC50 of above about 7)
10 | O=c1cc2n(cc1O)CCN(CC1CCCCC1)C2 [Example 22, 2-(cyclohexylmethyl)-7-hydroxy-1,2,3,4-tetrahydro-8H-pyrido[1,2-a]pyrazin-8-one] | ++ (two plus signs (++) is associated with a pIC50 of from about 6 to 7)
11 | O=c1cc2n(cc1O)CCN(Cc1ccc(C3CC3)cc1)C2 [Example 23, 2-(4-cyclopropylbenzyl)-7-hydroxy-1,2,3,4-tetrahydro-8H-pyrido[1,2-a]pyrazin-8-one] | +++ (three plus signs (+++) is associated with a pIC50 of above about 7)
12 | CC1(C)CCCC2=C1CC(CN1CCn3cc(O)c(=O)cc3C1)CC2 (stereo not shown) [Example 24, 2-[(8,8-dimethyl-1,2,3,4,5,6,7,8-octahydronaphthalen-2-yl)methyl]-7-hydroxy-1,2,3,4-tetrahydro-8H-pyrido[1,2-a]pyrazin-8-one] | +++ (three plus signs (+++) is associated with a pIC50 of above about 7)
13 | O=c1cc2n(cc1O)CCN(Cc1ccc(Cl)c(Cl)c1)C2 [Example 25, 2-(3,4-dichlorobenzyl)-7-hydroxy-1,2,3,4-tetrahydro-8H-pyrido[1,2-a]pyrazin-8-one] | +++ (three plus signs (+++) is associated with a pIC50 of above about 7)
14 | O=c1cc2n(cc1O)CCN(CC1CCCCCCC1)C2 [Example 26, 2-(cyclooctylmethyl)-7-hydroxy-1,2,3,4-tetrahydro-8H-pyrido[1,2-a]pyrazin-8-one] | ++ (two plus signs (++) is associated with a pIC50 of from about 6 to 7)
15 | Cc1cccc(C)c1CN1CCn2cc(O)c(=O)cc2C1 [Example 27, 2-(2,6-dimethylbenzyl)-7-hydroxy-1,2,3,4-tetrahydro-8H-pyrido[1,2-a]pyrazin-8-one] | +++ (three plus signs (+++) is associated with a pIC50 of above about 7)
16 | Cc1ccc(C)c(CN2CCn3cc(O)c(=O)cc3C2)c1 [Example 28, 2-(2,5-dimethylbenzyl)-7-hydroxy-1,2,3,4-tetrahydro-8H-pyrido[1,2-a]pyrazin-8-one] | +++ (three plus signs (+++) is associated with a pIC50 of above about 7)
17 | O=c1cc2n(cc1O)CCN(Cc1cc3ccccc3n1S(=O)(=O)c1ccccc1)C2 [Example 29, 7-hydroxy-2-{[1-(phenylsulfonyl)-1H-indol-2-yl]methyl}-1,2,3,4-tetrahydro-8H-pyrido[1,2-a]pyrazin-8-one] | +++ (three plus signs (+++) is associated with a pIC50 of above about 7)
18 | O=c1cc2n(cc1O)CCN(CCCc1ccccc1)C2 [Example 30, 7-hydroxy-2-(3-phenylpropyl)-1,2,3,4-tetrahydro-8H-pyrido[1,2-a]pyrazin-8-one] | ++ (two plus signs (++) is associated with a pIC50 of from about 6 to 7)
19 | CC(CN1CCn2cc(O)c(=O)cc2C1)c1ccccc1 (stereo not shown) [Example 31, 7-hydroxy-2-(2-phenylpropyl)-1,2,3,4-tetrahydro-8H-pyrido[1,2-a]pyrazin-8-one] | ++ (two plus signs (++) is associated with a pIC50 of from about 6 to 7)
20 | O=c1cc2n(cc1O)CCN(Cc1cc(F)cc(F)c1)C2 [Example 32, 2-(3,5-difluorobenzyl)-7-hydroxy-1,2,3,4-tetrahydro-8H-pyrido[1,2-a]pyrazin-8-one] | ++ (two plus signs (++) is associated with a pIC50 of from about 6 to 7)
21 | Cc1ccccc1CN1CCn2cc(O)c(=O)cc2C1 [Example 33, 7-hydroxy-2-(2-methylbenzyl)-1,2,3,4-tetrahydro-8H-pyrido[1,2-a]pyrazin-8-one] | +++ (three plus signs (+++) is associated with a pIC50 of above about 7)
22 | O=c1cc2n(cc1O)CCN(Cc1cc(-c3ccccc3)[nH]n1)C2 [Example 34, 7-hydroxy-2-[(5-phenyl-1H-pyrazol-3-yl)methyl]-1,2,3,4-tetrahydro-8H-pyrido[1,2-a]pyrazin-8-one] | ++ (two plus signs (++) is associated with a pIC50 of from about 6 to 7)
23 | O=c1cc2n(cc1O)CCN(Cc1cc(Cl)cc3c1OCCC3c1c[nH]cn1)C2 (stereo not shown) [Example 35, 2-{[6-chloro-4-(1H-imidazol-4-yl)-3,4-dihydro-2H-chromen-8-yl]methyl}-7-hydroxy-1,2,3,4-tetrahydro-8H-pyrido[1,2-a]pyrazin-8-one] | ++ (two plus signs (++) is associated with a pIC50 of from about 6 to 7)
24 | O=c1cc2n(cc1O)CCN(Cc1cccc(Oc3ccccc3)c1)C2 [Example 36, 7-hydroxy-2-(3-phenoxybenzyl)-1,2,3,4-tetrahydro-8H-pyrido[1,2-a]pyrazin-8-one] | +++ (three plus signs (+++) is associated with a pIC50 of above about 7)
25 | Cc1cccc(CN2CCn3cc(O)c(=O)cc3C2)c1C [Example 37, 2-(2,3-dimethylbenzyl)-7-hydroxy-1,2,3,4-tetrahydro-8H-pyrido[1,2-a]pyrazin-8-one] | +++ (three plus signs (+++) is associated with a pIC50 of above about 7)
26 | O=c1cc2n(cc1O)CCN(Cc1nc3ccccc3s1)C2 [Example 38, 2-(1,3-benzothiazol-2-ylmethyl)-7-hydroxy-1,2,3,4-tetrahydro-8H-pyrido[1,2-a]pyrazin-8-one] | ++ (two plus signs (++) is associated with a pIC50 of from about 6 to 7)
27 | O=c1cc2n(cc1O)CCN(Cc1ccccc1F)C2 [Example 39, 2-(2-fluorobenzyl)-7-hydroxy-1,2,3,4-tetrahydro-8H-pyrido[1,2-a]pyrazin-8-one] | +++ (three plus signs (+++) is associated with a pIC50 of above about 7)
28 | Cc1nn(C)c(Cl)c1CN1CCn2cc(O)c(=O)cc2C1 [Example 40, 2-[(5-chloro-1,3-dimethyl-1H-pyrazol-4-yl)methyl]-7-hydroxy-1,2,3,4-tetrahydro-8H-pyrido[1,2-a]pyrazin-8-one] | ++ (two plus signs (++) is associated with a pIC50 of from about 6 to 7)
